{"source": "patent US6069156A", "about": "“Indole derivatives as cGMP-PDE inhibitors” (Fujisawa Pharmaceutical Co., Ltd., priority 1995, dated 2000)", "key": {"cGMP-PDE": {"target": "T1, cGMP-PDE (Homo sapiens, UniProt O76074)", "T1 construct": "cGMP-PDE was separated from other isozymes in human platelets; from tissue; host or cells: human platelets", "experiment": "cGMP-phosphodiesterase (PDE) Assay (human platelets)", "assay_type": "biochemical"}, "[1]": {"test_system": "aorta (spirally cut strips)", "experiment": "Smooth Muscle Relaxant: noradrenaline-contracted rat aorta strips", "parameters": "species or system male Wistar rats", "conditions": "contraction by noradrenaline 1 μM, 37° C.", "protocol": "The aorta were carefully removed from male Wistar rats, cleaned of fat and extraneous tissue. Spirally cut strips of the aorta were placed in a 25 ml organ bath containing Tyrode solution of the following composition (mM); NaCl, 137; KCl, 2.7; CaCl2, 1.8; NaH2 PO4, 0.4; NaHCO3, 12.0; MgSO4, 1.1; glucose, 5.6. The bath was maintained at 37° C. and bubbled with 95% O2 and 5% CO2. The spirally cut strip was stretched to a resting force of 1.0 g, and the isometric contraction was recorded via a force development transducer on an ink writing recorder. Tissues were equilibrated for 60 minutes before contraction was induced by noradrenaline (NA, 1 μM). The test compounds were cumulatively added to organ bath in increasing concentrations ranging from 10^-8 to 10^-5 M, after maximum stable constriction to NA had been achieved."}, "[2]": {"test_system": "Coronary vasospasm induced with vasopressin", "experiment": "Vasopressin Induced-vasospasm Model (ST segment depression)", "assay_type": "in vivo, Male Donryu rats", "conditions": "10 mg/kg orally 30 minutes before vasopressin 0.2 iu/kg", "protocol": "Vasopressin Induced-vasospasm Model\nMale Donryu rats, weighing 160-200 g, were anesthetized intraperitoneally with sodium pentobarbital (60 mg/kg) 15 minutes before intravenous administration of vasopressin, and the femoral vein was cannulated with polyethylene tubing (diameter 0.8 mm). Coronary vasospasm was induced with vasopressin (0.2 iu/kg) dissolved in saline through the cannula in the femoral vein. The each test compound (10 mg/kg) was administered orally 30 minutes before the administration of vasopressin. The standard limb lead II of the electrocardiogram was recorded with an electrocardiograph. The depression of ST segment was measured as the difference in the amplitudes of the ST segment after and just before the administration of vasopressin. The amplitudes of ST segment were measured at intervals of 0.5 minutes for 5 minutes after administration of vasopressin."}, "corpora cavernosa [3]": {"test_system": "corpora cavernosa", "experiment": "Effect on Nitroprusside or Ach-induced Relaxation in Isolated Rat Corpora Cavernosa", "parameters": "species or system Male SD rats", "conditions": "compound at 10^-7 M", "protocol": "(a) Effect of Test Compound on Nitroprusside or Ach-induced Relaxation in Isolated Rat Corpora Cavernosa\nMale SD rats were anesthetized with sodium pentobarbital 50 mg/kg intraperitoneally, and the corpora cavernosa was excised. The tunica albuginea was dissected according to the methods described by Italiano et al. (Pharmacological Research, 30, No.4, 1994) and used for in vitro pharmacological study. The erectile tissue strip was placed in a 25 ml organ bath containing Krebs-Ringer solution. The bath was maintained at 37° C. and bubbled with 95% O2 and 5% CO2. The strip was stretched with a resting force of 0.25 g, and isometric contraction were recorded via force development transducer on a recorder.\nThe strip was equilibrated in the Krebs-Ringer solution for about 60 minutes, and preconstructed by 0.1 mM norepinephrine to ascertain the responsibility of each preparation. The strip was washed several times, and then constricted by 0.1 mM norepinephrine. After getting stable constrictile response to norepinephrine, the first dose-response curve for sodium nitroprusside or Ach was obtained. After washing a few times for 60 minutes, the strip was constricted by norepinephrine again, and the second dose-response curve for sodium nitroprusside or Ach was obtained. The test compound was added 30 minutes before adding norepinephrine."}, "corpora cavernosa [4]": {"test_system": "corpora cavernosa", "experiment": "Effect on the Relaxation Elicited by Electrical Field Stimulation in rat Corpora Cavernosa", "conditions": "compound at 10^-7 M", "protocol": "(b) Effect of Test Compound on the Relaxation Elicited by Electrical Field Stimulation in rat Corpora Cavernosa.\nThe rat erectile tissue strip prepared according to the method described by Italiano et al. (Pharmacological Research, 30, No4, 1994) was placed 25 ml organ bath containing Krebs-Ringer solution. The bath was maintained at 37° C. and bubbled with 95% O2 and 5% CO2. The solution also contained atropine (1 μM) and guanethidine (50 μM). The erectile tissue strip was stretched with a resting force of 0.25 g, and isometric contraction were recorded via force development transducer on a recorder. The bipolar platinum electrode connected to the electric stimulator was placed around the strip.\nThe strip was equilibrated in the Krebs-Ringer solution for about 60 minutes and preconstructed by 0.1 mM norepinephrine to ascertain the responsibility of each preparation. The strip was washed several times, and then constricted by 0.1 mM norepinephrine. After getting stable contractile response to norepinephrine, the first electrical field stimulation (1 to 45 Hz, 20V, 0.5 msec duration, 90 sec interval) was delivered. 30 minutes after adding the tested compound, the second electrical field stimulation was delivered."}, "[5]": {"test_system": "blood flow of corpus spongiosum penis and corpus cavernosum penis", "experiment": "Impotence Model (c): penile blood flow in anesthetized beagle", "assay_type": "in vivo, Male beagle", "protocol": "(c) Male beagle weighing 8.0-12.0 kg were anesthetized with pentobarbital sodium (35 mg/kg, i.v.). After tracheotomy, the animal was artificially ventilated using a volume-cycled ventilator. The femoral artery was cannulated for continuous blood pressure and heart rate monitoring. The femoral vein was cannulated for maintenance of anesthesia and administration of tested compound. Two laser-dopper probes were placed in the corpus spongiosum penis and corpus cavernosum penis for recording blood flow. After a period of stabilization of all parameters, tested compound was injected intravenously at a various concentration. […] The increase in blood flow reached a peak value of 55% of baseline and continued for longer than 15 minutes after the administration of said compound 1.0 mg/kg."}}}
{"smiles": "CCCc1c(C(=O)C(C)C)c2ccc(C(N)=O)cc2n1Cc1ccccc1Cl", "note": "[Example 6, 1-(2-chlorobenzyl)-3-isobutyryl-2-propylindole-6-carboxamide]", "values": [{"measurement": "IC50", "setting": "cGMP-PDE", "result": "< 100", "unit": "nM"}, {"measurement": "IC50", "setting": "[1]", "result": "< 100", "unit": "nM"}, {"measurement": "inhibiting activity (depression of ST segment)", "setting": "[2]", "result": "more than 50%"}, {"measurement": "Ach-induced relaxation of corpora cavernosa", "setting": "corpora cavernosa [3]", "result": "potentiated Ach-induced relaxation of corpora cavernosa"}, {"measurement": "nitroprusside-induced relaxation of corpora cavernosa", "setting": "corpora cavernosa [3]", "result": "potentiated nitroprusside-induced relaxation of corpora cavernosa"}, {"measurement": "100 μM Ach-induced relaxant response", "setting": "corpora cavernosa [3]; contraction by 10^-4 M norepinephrine, control 11.0%", "result": 18.7, "unit": "%"}, {"measurement": "relaxation of corpora cavernosa elicited by electrical field stimulation", "setting": "corpora cavernosa [4]", "result": "potentiated relaxation of corpora cavernosa elicited by electrical field stimulation"}, {"measurement": "Relaxant response elicited by 30 Hz", "setting": "corpora cavernosa [4]; control 14.3%", "result": 17.1, "unit": "%"}, {"measurement": "duration of increase in blood flow", "setting": "[5]; 1.0 mg/kg intravenous", "result": "> 15", "unit": "min"}, {"measurement": "peak value of increase in blood flow (of baseline)", "setting": "[5]; 1.0 mg/kg intravenous", "result": 55, "unit": "%"}, {"measurement": "blood flow of corpus spongiosum penis and corpus cavernosum penis", "setting": "[5]; intravenous", "result": "increased in the blood flow of both corpus spongiosum penis and corpus cavernosum penis"}, {"measurement": "hemodynamic change", "setting": "[5]; intravenous", "result": "without hemodynamic change"}]}
